In patent publication US11993599B2, “Therapeutic compounds” (Genentech, Inc., priority 2021, dated 2024):

How the values were obtained:
Format in all cases: cell-based
BRM [1] = target: T1, BRM (Homo sapiens, UniProt P51531); experiment: HiBIT nanoluciferase complementation screen for BRM degraders; conditions: 18 hours, BRM-HiBIT KI Hela cells, luminescence normalized: DMSO only = 0%, no cells = −100%; for Median HiBiT activity 1 μM: compound 1 μM; for Median HiBiT activity 10 μM: compound 10 μM
Source text: Example B-1: HiBIT Nanoluciferase Complementation Screen for BRM Degraders
To assess BRM degradation, compounds were screened for their effect of BRM levels using the HiBIT nanoluciferase complementation strategy developed at Promega. In brief, a HELA cell line that was genetically modified via CRISPR/CAS9 was used to fuse the HiBIT sequence at the 3′ end of BRM (BRM-HiBIT KI Hela). BRM protein levels were then detected using the Nano-Glo HiBIT lytic detection reagent (Promega).
The screened compounds were plated into a white 384-well plate at 10 μM and 1 μM in 25 nL DMSO using an Echo dispenser (Labcyte). BRM-HiBIT KI Hela cells were seeded in the compound plate at 5000 cell per well at 25 μl in DMEM growth media (containing 10% FBS, 1% Glutamax (GIBCO cat #31053-028), lx Penicillin-Streptomycin (ROCHE, cat #1107444001), 4.5 g/L D-Glucose, and no phenol red). After incubation with compounds for 18 hours at 37° C., cell viability was assessed by the addition of 5 μl Cell Titer-Fluor reagent (Promega). After 30 s of mixing on an orbital shaker, and 30 minutes incubation at 37° C., fluorescence was measured with an INFINITE F500 (Tecan) (380-400 nm excitation, 505 nm emission). Next, to assess BRM HiBIT levels, 30 μl of Nano-Glo HiBIT lytic detection reagent (Promega) containing 1:50 Nano-Glo HiBIT lytic substrate and 1:100 LgBIT protein per ml of lytic buffer was added. After shaking on an orbital shaker at 350 rpm for 10 minutes, luminescence was measured on the INFINITE F500 (Tecan). To assess compound effects, luminescence signal was normalized with the mean of wells treated with DMSO only set to 0% and the mean of wells containing no cells set to −100%. Note that, in Table 4, the “Compound Number” corresponds to that used in Table 1.

BRG1 = target: T2, BRG1 (Homo sapiens, UniProt P51532); experiment: Immunofluorescence assay for BRG1 degradation in SW1573 cells; conditions: 20 hours incubation; for DC50: immunofluorescence mean nuclear signal, read-out: BRG1 IF Degradation IC50; for Dmax: SW1573, 20 h, normalized to a known degrader control, read-out: BRG1 IF Degradation Sinf (%)
T2 construct: either BRM primary antibody (Cell signaling Cat #11966) or BRG primary antibody (Abcam, ab 110641); endogenous in cells; host or cells: SW1573
How it was run: (§1)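 SW1573 cells treated with compound for 20 h, then fixed, permeabilized and immunostained for BRM or BRG1 with Hoechst nuclear counterstain. Mean nuclear intensity per cell quantified by high-content imaging; data normalized to a reference degrader control, with floating-maximum curve fits giving IC50 and Dmax.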

BRM [2] = target: T1, BRM; experiment: Immunofluorescence assay for BRM degradation in SW1573 cells; set-up: treated overnight at 4° C. with either BRM primary antibody (Cell signaling Cat #11966) or BRG primary antibody; endogenous in cells; host or cells: SW1573; conditions: 20 hours incubation; for DC50: immunofluorescence mean nuclear signal, read-out: BRM IF Degradation IC50; for BRM IF Degradation Sinf (%): normalized to a known degrader control
How it was run: as §1

T1 sequence (P51531 whole entry): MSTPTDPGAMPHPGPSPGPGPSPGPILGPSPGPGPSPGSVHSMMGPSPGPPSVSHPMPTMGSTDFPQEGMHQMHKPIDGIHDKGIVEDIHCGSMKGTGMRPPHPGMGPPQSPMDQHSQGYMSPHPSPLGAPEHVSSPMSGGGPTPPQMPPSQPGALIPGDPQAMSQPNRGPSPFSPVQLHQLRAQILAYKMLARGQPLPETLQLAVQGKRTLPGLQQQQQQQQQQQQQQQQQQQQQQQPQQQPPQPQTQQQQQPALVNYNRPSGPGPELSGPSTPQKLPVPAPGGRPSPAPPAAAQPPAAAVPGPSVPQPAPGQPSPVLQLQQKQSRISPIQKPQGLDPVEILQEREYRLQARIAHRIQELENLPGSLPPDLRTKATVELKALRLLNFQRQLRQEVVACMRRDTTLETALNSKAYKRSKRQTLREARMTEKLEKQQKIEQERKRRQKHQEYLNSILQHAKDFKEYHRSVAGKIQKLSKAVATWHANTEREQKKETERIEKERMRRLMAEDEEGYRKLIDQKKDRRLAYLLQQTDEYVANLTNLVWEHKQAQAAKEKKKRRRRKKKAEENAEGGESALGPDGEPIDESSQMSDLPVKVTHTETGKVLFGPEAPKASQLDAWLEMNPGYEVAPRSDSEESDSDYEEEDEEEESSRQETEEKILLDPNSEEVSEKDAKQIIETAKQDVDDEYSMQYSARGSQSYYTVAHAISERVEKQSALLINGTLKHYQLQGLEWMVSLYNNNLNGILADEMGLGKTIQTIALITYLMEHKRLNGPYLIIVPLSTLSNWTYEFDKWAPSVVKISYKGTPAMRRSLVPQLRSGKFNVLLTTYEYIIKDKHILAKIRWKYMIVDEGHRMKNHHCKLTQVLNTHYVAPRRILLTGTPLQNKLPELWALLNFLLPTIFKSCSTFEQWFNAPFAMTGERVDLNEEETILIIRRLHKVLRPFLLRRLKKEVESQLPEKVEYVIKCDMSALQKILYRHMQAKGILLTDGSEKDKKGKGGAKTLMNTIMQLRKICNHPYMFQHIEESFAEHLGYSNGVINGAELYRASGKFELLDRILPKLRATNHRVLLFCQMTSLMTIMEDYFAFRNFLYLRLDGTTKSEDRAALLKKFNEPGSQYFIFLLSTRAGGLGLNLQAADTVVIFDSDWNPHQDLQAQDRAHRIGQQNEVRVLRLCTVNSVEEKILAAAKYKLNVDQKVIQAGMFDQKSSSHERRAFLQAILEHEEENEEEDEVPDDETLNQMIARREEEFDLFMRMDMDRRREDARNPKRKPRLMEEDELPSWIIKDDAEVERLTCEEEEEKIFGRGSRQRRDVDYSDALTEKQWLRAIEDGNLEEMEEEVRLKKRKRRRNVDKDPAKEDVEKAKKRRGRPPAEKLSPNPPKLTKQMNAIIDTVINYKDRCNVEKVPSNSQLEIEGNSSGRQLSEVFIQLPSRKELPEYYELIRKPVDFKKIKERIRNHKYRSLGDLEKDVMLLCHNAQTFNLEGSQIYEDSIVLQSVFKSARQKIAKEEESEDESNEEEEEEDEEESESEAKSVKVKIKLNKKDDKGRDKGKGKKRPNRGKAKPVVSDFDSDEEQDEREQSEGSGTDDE
T2 sequence (P51532 whole entry): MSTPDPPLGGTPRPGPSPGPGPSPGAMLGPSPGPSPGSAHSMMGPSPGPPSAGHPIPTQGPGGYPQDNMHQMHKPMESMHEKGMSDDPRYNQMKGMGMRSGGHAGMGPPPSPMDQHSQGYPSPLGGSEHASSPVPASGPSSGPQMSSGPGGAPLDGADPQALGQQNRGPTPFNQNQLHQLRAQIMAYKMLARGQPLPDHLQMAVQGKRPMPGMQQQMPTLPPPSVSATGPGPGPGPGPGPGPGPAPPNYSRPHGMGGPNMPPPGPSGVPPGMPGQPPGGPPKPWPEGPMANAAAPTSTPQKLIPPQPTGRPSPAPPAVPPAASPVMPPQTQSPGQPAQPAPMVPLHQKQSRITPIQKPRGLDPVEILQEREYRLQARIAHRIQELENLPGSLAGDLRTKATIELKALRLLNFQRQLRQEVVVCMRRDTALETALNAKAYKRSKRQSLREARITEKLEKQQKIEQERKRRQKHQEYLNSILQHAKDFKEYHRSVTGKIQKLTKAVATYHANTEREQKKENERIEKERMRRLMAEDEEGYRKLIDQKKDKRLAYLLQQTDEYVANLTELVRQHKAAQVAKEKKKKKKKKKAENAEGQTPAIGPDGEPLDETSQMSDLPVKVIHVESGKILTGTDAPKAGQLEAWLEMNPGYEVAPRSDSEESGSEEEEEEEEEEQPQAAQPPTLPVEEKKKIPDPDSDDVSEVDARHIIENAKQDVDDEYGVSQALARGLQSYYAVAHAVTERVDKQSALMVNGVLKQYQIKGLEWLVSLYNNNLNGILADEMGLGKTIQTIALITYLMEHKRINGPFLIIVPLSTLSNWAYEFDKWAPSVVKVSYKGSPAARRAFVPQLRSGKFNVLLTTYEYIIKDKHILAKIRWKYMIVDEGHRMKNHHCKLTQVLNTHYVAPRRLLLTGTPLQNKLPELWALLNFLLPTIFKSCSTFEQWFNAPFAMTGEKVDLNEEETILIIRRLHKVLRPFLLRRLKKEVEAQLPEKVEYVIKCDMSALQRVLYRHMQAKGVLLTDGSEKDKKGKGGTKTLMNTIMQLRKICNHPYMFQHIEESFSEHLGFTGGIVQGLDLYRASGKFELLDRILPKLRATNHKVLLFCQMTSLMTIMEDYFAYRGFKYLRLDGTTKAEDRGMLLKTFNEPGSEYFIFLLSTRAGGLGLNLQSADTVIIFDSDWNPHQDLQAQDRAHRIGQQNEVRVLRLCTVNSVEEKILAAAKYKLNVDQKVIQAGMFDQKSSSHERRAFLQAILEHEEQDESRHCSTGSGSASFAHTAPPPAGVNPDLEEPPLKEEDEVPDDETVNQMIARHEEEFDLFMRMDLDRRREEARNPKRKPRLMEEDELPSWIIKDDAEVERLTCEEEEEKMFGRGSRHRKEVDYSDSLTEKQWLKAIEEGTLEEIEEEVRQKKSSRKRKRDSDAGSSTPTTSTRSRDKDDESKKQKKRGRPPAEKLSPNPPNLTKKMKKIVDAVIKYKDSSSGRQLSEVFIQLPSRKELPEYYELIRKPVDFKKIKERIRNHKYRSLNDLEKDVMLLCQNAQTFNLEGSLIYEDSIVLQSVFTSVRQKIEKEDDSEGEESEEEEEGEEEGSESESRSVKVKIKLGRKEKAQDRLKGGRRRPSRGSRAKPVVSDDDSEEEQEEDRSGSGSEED

| SMILES | Median HiBiT activity 1 μM (BRM [1]) [%] | Median HiBiT activity 10 μM (BRM [1]) [%] | DC50 (BRG1) [µM] | Dmax (BRG1) [%] | DC50 (BRM [2]) [µM] | BRM IF Degradation Sinf (%) (BRM [2]) |
| --- | --- | --- | --- | --- | --- | --- |
| NCC(=O)NCCCc1cc(N2C3CCC2CN(c2cc(-c4ccccc4O)nnc2N)C3)ccn1 [Compound 32, 2-amino-N-(3-(4-(3-(3-amino-6-(2-hydroxyphenyl)pyridazin-4-yl)-3,8-diazabicyclo[3.2.1]octan-8-yl)pyridin-2-yl)propyl)acetamide] | −16.4623 | −30.3732 | 0.01 to 0.1 | 0 to 30 | 0.01 to 0.1 | E (E indicates −30%-−70%) |
| Nc1nnc(-c2ccccc2O)cc1N1CC2CCC(C1)N2c1ccnc(C#CC2CCNCC2)c1 [Compound 19, 2-(6-amino-5-(8-(2-(piperidin-4-ylethynyl)pyridin-4-yl)-3,8-diazabicyclo[3.2.1]octan-3-yl)pyridazin-3-yl)phenol] | −36.9943 | −56.3342 | > 0.1 | 30 to 70 | 0.01 to 0.1 | E (E indicates −30%-−70%) |
| Nc1nnc(-c2ccccc2O)cc1N1CC2CCC(C1)N2c1ccnc(C#CCOCCO)c1 [Compound 4, 2-(6-amino-5-(8-(2-(3-(2-hydroxyethoxy)prop-1-yn-1-yl)pyridin-4-yl)-3,8-diazabicyclo[3.2.1]octan-3-yl)pyridazin-3-yl)phenol] | −65.5436 | −51.5968 | 0.01 to 0.1 | 0 to 30 | 0.01 to 0.1 | E (E indicates −30%-−70%) |
| CN(CC#Cc1cc(N2C3CCC2CN(c2cc(-c4ccccc4O)nnc2N)C3)ccn1)CCO [Compound 3, 2-(6-amino-5-(8-(2-(3-((2-hydroxyethyl)(methyl)amino)prop-1-yn-1-yl)pyridin-4-yl)-3,8-diazabicyclo[3.2.1]octan-3-yl)pyridazin-3-yl)phenol] | −68.4262 | −39.6172 | 0.01 to 0.1 | 30 to 70 | 0.01 to 0.1 | E (E indicates −30%-−70%) |
| NCCCc1cc(N2C3CCC2CN(c2cc(-c4ccccc4O)nnc2N)C3)ccn1 [Compound 33, 2-(6-amino-5-(8-(2-(3-aminopropyl)pyridin-4-yl)-3,8-diazabicyclo[3.2.1]octan-3-yl)pyridazin-3-yl)phenol] | −14.8996 | −55.0132 | > 0.1 | 30 to 70 | > 0.1 | E (E indicates −30%-−70%) |
| Nc1nnc(-c2ccccc2O)cc1N1CC2CCC(C1)N2c1ccnc(C#CCN2CCS(=O)(=O)CC2)c1 [Compound 18, 4-(3-(4-(3-(3-amino-6-(2-hydroxyphenyl)pyridazin-4-yl)-3,8-diazabicyclo[3.2.1]octan-8-yl)pyridin-2-yl)prop-2-yn-1-yl)thiomorpholine1,1-dioxide] | −37.0807 | −56.4043 | > 0.1 |  | > 0.1 | E (E indicates −30%-−70%) |
| Nc1nnc(-c2ccccc2O)cc1N1CC2CCC(C1)N2c1ccnc(C#CCN2CCNCC2)c1 [Compound 28, 2-(6-amino-5-(8-(2-(3-(piperazin-1-yl)prop-1-yn-1-yl)pyridin-4-yl)-3,8-diazabicyclo[3.2.1]octan-3-yl)pyridazin-3-yl)phenol] | −23.3156 | −44.9026 | > 0.1 |  | > 0.1 | E (E indicates −30%-−70%) |
| Cn1cc(C#Cc2cc(N3C4CCC3CN(c3cc(-c5ccccc5O)nnc3N)C4)ccn2)cn1 [Compound 21, 2-(6-amino-5-(8-(2-((1-methyl-1H-pyrazol-4-yl)ethynyl)pyridin-4-yl)-3,8-diazabicyclo[3.2.1]octan-3-yl)pyridazin-3-yl)phenol] | −32.7297 | −42.1813 | 0.01 to 0.1 | 0 to 30 | > 0.1 |  |
| Nc1nnc(-c2ccccc2O)cc1N1CC2CCC(C1)N2c1ccnc(C#CCCN2CCNCC2)c1 [Compound 1, 2-(6-amino-5-(8-(2-(4-(piperazin-1-yl)but-1-yn-1-yl)pyridin-4-yl)-3,8-diazabicyclo[3.2.1]octan-3-yl)pyridazin-3-yl)phenol] | −87.0122 | −81.2914 | > 0.1 | 71 to 120 | 0.01 to 0.1 | F (F indicates −71%-−120%) |
| Nc1nnc(-c2ccccc2O)cc1N1CC2CCC(C1)N2c1ccnc(C#CCCCCO)c1 [Compound 27, 2-(6-amino-5-(8-(2-(6-hydroxyhex-1-yn-1-yl)pyridin-4-yl)-3,8-diazabicyclo[3.2.1]octan-3-yl)pyridazin-3-yl)phenol] | −23.7734 | −28.4819 | > 0.1 |  | > 0.1 | D (D indicates 0-−30%) |
| Nc1nnc(-c2ccccc2O)cc1N1CC2CCC(C1)N2c1ccnc(C#CCOC2CCCNC2)c1 (centres unmarked) [Compound 12, 2-(6-amino-5-(8-(2-(3-(piperidin-3-yloxy)prop-1-yn-1-yl)pyridin-4-yl)-3,8-diazabicyclo[3.2.1]octan-3-yl)pyridazin-3-yl)phenol] | −45.7932 | −34.0604 | 0.01 to 0.1 | 0 to 30 | 0.01 to 0.1 | E (E indicates −30%-−70%) |
